Experimental findings from article PMC3633088 (Chemistry & biology, 2013) are described below.

The target in data set [1] is T1, hASNase3, cleaved (active) form, alpha and beta chains (Homo sapiens, UniProt Q7L266).
T1 sequence (Q7L266 1-167): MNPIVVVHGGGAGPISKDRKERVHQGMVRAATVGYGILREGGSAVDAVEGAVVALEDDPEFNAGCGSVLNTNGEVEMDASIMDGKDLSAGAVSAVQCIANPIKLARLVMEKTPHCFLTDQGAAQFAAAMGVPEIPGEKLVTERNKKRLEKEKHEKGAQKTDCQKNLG
T1 sequence (Q7L266 168-308): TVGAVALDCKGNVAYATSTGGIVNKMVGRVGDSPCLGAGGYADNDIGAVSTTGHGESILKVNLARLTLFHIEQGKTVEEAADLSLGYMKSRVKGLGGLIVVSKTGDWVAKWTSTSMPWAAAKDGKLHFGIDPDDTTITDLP
As to the kind of experiment: asparaginase activity assay. Type of data set: biochemical. The conditions noted are these: up to 50 mM; cleaved enzyme.

Data set [2] addresses T1, hASNase3, cleaved (active) form, alpha and beta chains. As to the kind of experiment: asparaginase activity assay. The format is biochemical. The following applies: turnover by cleaved enzyme only; data not shown.
Data set [3] has the same target. As to the kind of experiment: X-ray crystal structure, […] Å. The format is binding. The following applies: crystal soaked in 3 M glycine, pH 4.9, <1 minute; substrate site (Arg196, Asp199).
For data set [4] the target is unchanged. As to the kind of experiment: asparaginase activity assay. Type of data set: biochemical. The conditions noted are these: 10 or 50 mM glycine; cleaved enzyme.
For data set [5], the target named is T2, hASNase3, uncleaved form (human asparaginase 3; hASRGL1/ALP; CRASH) (Homo sapiens, UniProt Q7L266).
T2 sequence (Q7L266 1-308): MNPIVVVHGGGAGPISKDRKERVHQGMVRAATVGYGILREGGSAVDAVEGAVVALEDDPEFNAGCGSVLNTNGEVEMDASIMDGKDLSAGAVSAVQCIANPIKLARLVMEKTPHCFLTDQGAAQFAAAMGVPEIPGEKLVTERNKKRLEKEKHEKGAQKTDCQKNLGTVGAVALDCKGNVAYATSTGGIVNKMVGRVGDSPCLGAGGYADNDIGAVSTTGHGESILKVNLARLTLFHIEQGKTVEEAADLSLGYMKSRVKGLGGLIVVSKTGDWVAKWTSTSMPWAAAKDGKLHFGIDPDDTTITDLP
As to the kind of experiment: autocleavage, SDS-PAGE band quantification. The conditions noted are these: accelerates autoproteolysis; 5 mM glycine, pH 7.5, 25 °C, 42 hours. Type of data set: biochemical.

The data set “crystal structure” concerns the molecule itself. In words: crystal structure.
A further data set addresses T3, hASNase3 α-chain (human, UniProt Q7L266 1-167).
T3 sequence (looked up): T1 sequence (Q7L266 1-167)
In words: crystal structure.

Regarding `N[C@@H](CC(=O)O)C(=O)O` [L-aspartate], the “inhibition, concentration-dependent” value in data set [1] was “glycolate, glyoxylate, oxalate, L-aspartate, and serine showed a concentration-dependent effect”.

Take `NC(=O)C[C@H](N)C(=O)O` [asparagine]: in data set [2], the asparaginase activity assay result is given as “The measured asparaginase activity of hASNase3 was proportional to the amount of cleaved enzyme”.

For `NCC(=O)O` [glycine], the “X-ray crystal structure, 1.91 Å” value in data set [3] is “In this post-cleavage state of hASNase3, glycine bound at the active site”. Besides, the “% reduction of asparaginase activity at 10 or 50 mM” value in data set [4] is ~ 50%. Besides, in data set [5], the “% cleavage at 5 mM” value was found to be 40%.

For the molecule `O=C(O)CO` [glycolate], the “inhibition, concentration-dependent” value in data set [1] was “glycolate, glyoxylate, oxalate, L-aspartate, and serine showed a concentration-dependent effect”.

In the case of `O=CC(=O)O` [glyoxylate], in data set [1], the “inhibition, concentration-dependent” value was “glycolate, glyoxylate, oxalate, L-aspartate, and serine showed a concentration-dependent effect”.

Regarding `O=C(O)C(=O)O` [oxalate], the “inhibition, concentration-dependent” value in data set [1] is “glycolate, glyoxylate, oxalate, L-aspartate, and serine showed a concentration-dependent effect”.

Turning to `N[C@@H](CO)C(=O)O` [serine], the “inhibition, concentration-dependent” value in data set [1] is “glycolate, glyoxylate, oxalate, L-aspartate, and serine showed a concentration-dependent effect”.

B1: Human asparaginase 3 (hASNase3), cleaved form (α- and β-chains) (complex)
chain 1: T1 sequence (Q7L266 1-167)
chain 2: T1 sequence (Q7L266 168-308)
Take B1: in the data set “crystal structure”, the binding result is “binds”.

B2: hASNase3 β-chain (domain or fragment, human, UniProt Q7L266 168-308, looked up)
chain: T1 sequence (Q7L266 168-308)
In the case of B2, the binding result with hASNase3 α-chain is “binds”.
